In patent US20220347171A1, “TREATMENT OF PRURIGO NODULARIS” (TREVI THERAPEUTICS, INC., priority 2016, published 2022):
Structures can show the parent of a compound that is named as a salt.

System: prurigo nodularis patients
Assay: Double-blind, placebo-controlled trial in prurigo nodularis patients (Example 2): 7-day average daily Worst Itching Intensity NRS (0-10)
Format: in vivo, human
Procedure: This clinical study was a double-blind, placebo-controlled trial in which prurigo nodularis patients were randomized in a 1:1:1 ratio to nalbuphine ER tablets to a target dose of 90 mg twice daily (BID), nalbuphine HCl ER tablets 180 mg BID, or placebo tablets BID. Use of nonsedating rescue antihistamine medications (non-first generation H1-antihistamines [Simons F E. Advances in H1-antihistamines. N Engl J Med. 2004; 351(21):2203-17.]) were allowed in the study but their use was recorded. Cleansing emollients were allowed for hygiene purposes provided there were no active substances (such as menthol or urea) contained in the lotion. A placebo comparator was chosen because there are no approved treatments for prurigo nodularis in the United States or Europe or an established standard of care that could serve as an active control.
The primary objectives were to evaluate the effects of two doses of nalbuphine HCl ER tablets on the 7-day average daily worst itch (i.e., most severe) intensity using a Worst Itching Intensity Numerical Rating Scale (NRS, 0 [no itching]-10 [worst possible itching]; range, 0-10; anchors at 0 “no itching”; 4-6 “moderate itching”; and 10 “worst possible itching”) (FIG. 1) as well as safety and tolerability. The study was conducted at four North American sites and four European sites. The Sponsor oversaw the conduct of the trial and an independent unblinded Data Safety Monitoring Board reviewed safety data approximately once a month during the conduct of the trial.
The initial primary endpoint was the proportion of patients who achieved at least 30% reduction threshold in 7-day average daily diary-reported worst itch intensity NRS score from baseline to Week 10/last observed post-baseline value (LOV). For the primary endpoint, a responder was a patient who achieved at least 30% reduction threshold in 7-day average daily diary-reported worst itch intensity NRS score from baseline to Week 10/last observed post-baseline value (LOV).
Before study completion and unblinding, however, a more substantial 50% NRS reduction criterion was added as an important definition of response. For this criterion, a responder was a patient who achieved at least 50% reduction threshold in 7-day average daily diary-reported worst itch intensity NRS score from baseline to Week 10/last observed post-baseline value (LOV).
The modified intent-to-treat (MITT) population consisted of all randomly assigned patients who provided a baseline calculated NRS and at least one post-baseline NRS during randomized treatment. Patients were analyzed according to the treatment to which they were randomly assigned.
The primary worst itch NRS endpoint was evaluated by the calculation of proportions, and statistical testing of each nalbuphine dose and placebo was undertaken using a stratified categorical method, the Cochran-Mantel-Haenszel test that took into account site. Specifically, each nalbuphine group was compared to placebo in the form of a stratified (by site) 2×2 table with a P value reported for the nalbuphine HCl ER 180 mg BID versus placebo comparison and a P value separately reported for the nalbuphine HCl ER 90 mg BID versus placebo comparison. The lower nalbuphine dose versus placebo P value was evaluated only if the higher nalbuphine dose versus placebo P value was statistically significant at the 0.05 level. Data from all post-baseline visits were used to fit the model.
In the first 2 weeks of treatment, patients were blindly force-titrated to their assigned target dose, with the patients in the active arms reaching a dose of 90 mg BID (NAL 90) and, for those in the high dose group, to 180 mg BID (NAL 180) in the second week. Study drug was administered in blister cards containing the labeled morning and evening doses for each day of the week. Subsequently, patients continued stable doses of the study drug for an additional 8 weeks and were then washed off study drug and followed for another 2 weeks for itching intensity and safety.

In the case of `Oc1ccc2c3c1OC1[C@@H](O)CC[C@@]4(O)[C@@H](C2)N(CC2CCC2)CC[C@]314` (stereo partly drawn) [Nalbuphine, 17-(cyclobutylmethyl)-4,5α-epoxymorphinian-3, 6α, 14-triol, hydrochloride], the “Responders: at least 30% reduction in 7-day average daily diary-reported worst itch intensity NRS score from baseline” value (“Responders: at least 30% reduction” below) (90 mg BID, Week 10 - LOV, MITT N=22, P value 0.779 vs placebo) was 6 (27.3) N (%), the “Responders: at least 50% reduction in 7-day average daily diary-reported worst itch intensity NRS score from baseline” value (“Responders: at least 50% reduction” below) (90 mg BID, Week 10 - LOV, MITT N=22, p-value 0.981 vs placebo) was 3 (13.6%) N (%) and the “Responders: at least 30% reduction” value (90 mg BID, Week 10 - completer, N=18, P value 0.723 vs placebo) was 6 (33.3) N (%). For the same compound, the “Responders: at least 50% reduction” value (90 mg BID, Week 10 - completer, N=18, p-value 0.649 vs placebo) was 2 (11.1%) N (%), the “Responders: at least 30% reduction” value (180 mg BID, Week 10 - LOV, MITT N=18, P value 0.323 vs placebo) was 8 (44.4) N (%) and the “Responders: at least 50% reduction” value (180 mg BID, Week 10 - LOV, MITT N=18, p-value 0.083 vs placebo) was 6 (33.3%) N (%). The “Responders: at least 30% reduction” value (180 mg BID, Week 10 - completer, N=12, P value 0.026 vs placebo) was 9 (75.0) N (%), the “Responders: at least 50% reduction” value (180 mg BID, Week 10 - completer, N=12, p-value 0.028 vs placebo) was 6 (50%) N (%) and the “Mean Change from Baseline to the Last Observation in the Worst Itching NRS versus placebo” value (180 mg BID, patients who completed the study, P=0.025) was “statistically significant difference”.
